# Tests used:
# PC3 (prostate) = assay: In vitro cytotoxic activity (MTT) assay, PC3; type: cell-based; details: Homo sapiens, Prostate cell; PC3 (prostate) cells, exposed for 96 hours; read-out: IC50, concentration of compound eliciting a 50% inhibition of cell proliferation
# Description: (§1) Compounds 1-16 were screened for their in vitro cytotoxic activity utilizing a 3-(4,5-dimethyl-thiazol-2-yl)-2,5-diphenyltetrazolium bromide (MTT) assay against selected cancer human cell lines consisting of PC3 (prostate), HCT116 (colon), A375 (melanoma), H1299 (lung), MIAPaCa-2 (pancreas), HL60 (leukemia), MCF7 (breast), MDA-MB-231 (breast) (T. Mosmann, J. Immunol. Meth., 1983, 65, 55-63). The cells were cultured at 37° C. in RMPI1640 medium supplemented with 10% fetal bovine serum, 50 IU/mL penicillin, and 50 μg/mL streptomycin in a 5% CO2 incubator. All cells were sub-cultured 3 times/week by trypsinisation. Viable cells were seeded and allowed to adhere for 12 h before a test drug was added in 96-well plates at an initial density of 1.0×10^5 cells/mL. Tumour cell lines were separately exposed to various concentrations of the tested compounds followed by incubation at a temperature of 37° C. during 96 h inside a medium of fresh RMPI 1640. Cells were subsequently incubated at 37° C. using MTT at 0.5 mg/mL during 4 h. After removal of supernatant, formazan crystals were dissolved in isopropanol and the optical density was measured at 570 nm. CX-4945 was used as a positive control.
# HCT116 (colon) = assay: In vitro cytotoxic activity (MTT) assay, HCT116; type: cell-based; details: Homo sapiens, HCT-116; HCT116 (colon) cells, exposed for 96 hours; read-out: IC50, concentration of compound eliciting a 50% inhibition of cell proliferation
# Description: as §1
# A375 (melanoma) = assay: In vitro cytotoxic activity (MTT) assay, A375; type: cell-based; details: Homo sapiens, A-375; A375 (melanoma) cells, exposed for 96 hours; read-out: IC50, concentration of compound eliciting a 50% inhibition of cell proliferation
# Description: as §1
# H1299 (lung) = assay: In vitro cytotoxic activity (MTT) assay, H1299; type: cell-based; details: Homo sapiens, NCI-H1299; H1299 (lung) cells, exposed for 96 hours; read-out: IC50, concentration of compound eliciting a 50% inhibition of cell proliferation
# Description: as §1
# MIAPaCa-2 (pancreas) = assay: In vitro cytotoxic activity (MTT) assay, MIAPaCa-2; type: cell-based; details: Homo sapiens, MIA PaCa-2; MIAPaCa-2 (pancreas) cells, exposed for 96 hours; read-out: IC50, concentration of compound eliciting a 50% inhibition of cell proliferation
# Description: as §1
# HL60 (leukemia) = assay: In vitro cytotoxic activity (MTT) assay, HL60; type: cell-based; details: Homo sapiens, HL-60; HL60 (leukemia) cells, exposed for 96 hours; read-out: IC50, concentration of compound eliciting a 50% inhibition of cell proliferation
# Description: as §1
# MCF7 (breast) = assay: In vitro cytotoxic activity (MTT) assay, MCF7; type: cell-based; details: Homo sapiens; MCF7 (breast) cells, exposed for 96 hours; read-out: IC50, concentration of compound eliciting a 50% inhibition of cell proliferation
# Description: as §1
# MDA-MB-231 (breast) = assay: In vitro cytotoxic activity (MTT) assay, MDA-MB-231; type: cell-based; details: Homo sapiens; MDA-MB-231 (breast) cells, exposed for 96 hours; read-out: IC50, concentration of compound eliciting a 50% inhibition of cell proliferation
# Description: as §1
# [1] = target: T1, recombinant human CK2 (RRββ-holoenzyme) (Homo sapiens, UniProt P68400); assay: CK2 Kinase Assay (radiometric, [γ-33P] ATP); type: biochemical; details: final ATP concentration 15 μM, 10 min at 30° C., eight concentrations; read-out: protein kinase CK2 IC50
# T1 construct: purchased Millipore
# T1 sequence (P68400 whole entry): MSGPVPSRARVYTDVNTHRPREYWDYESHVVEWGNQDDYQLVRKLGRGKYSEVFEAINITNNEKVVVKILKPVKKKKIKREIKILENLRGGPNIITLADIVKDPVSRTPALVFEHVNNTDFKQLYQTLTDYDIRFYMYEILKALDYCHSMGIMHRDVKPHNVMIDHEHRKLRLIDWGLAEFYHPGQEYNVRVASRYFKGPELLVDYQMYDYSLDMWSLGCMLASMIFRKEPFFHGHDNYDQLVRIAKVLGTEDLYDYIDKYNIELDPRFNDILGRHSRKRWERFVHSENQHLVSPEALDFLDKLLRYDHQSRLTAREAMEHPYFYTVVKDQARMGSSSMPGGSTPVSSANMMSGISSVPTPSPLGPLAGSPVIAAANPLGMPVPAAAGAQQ
# T1 sequence (P67870 whole entry partner): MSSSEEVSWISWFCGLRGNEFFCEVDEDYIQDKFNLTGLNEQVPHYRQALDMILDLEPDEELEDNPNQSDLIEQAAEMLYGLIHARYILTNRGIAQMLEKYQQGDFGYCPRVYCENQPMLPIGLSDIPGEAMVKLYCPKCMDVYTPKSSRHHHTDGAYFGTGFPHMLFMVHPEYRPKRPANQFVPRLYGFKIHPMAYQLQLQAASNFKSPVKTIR
# Description: CK2 Kinase Assay was conducted using the protocol as described in Pierre F. et al; J. Med. Chem. 2011, 54, 635-654. The tested compounds in aqueous solution were added at a volume of 10 μL to a reaction mixture comprising 10 μL of assay dilution buffer (ADB; 20 mM MOPS, pH 7.2, 25 mM β-glycerol phosphate, 5 mM EGTA, 1 mM sodium orthovanadate, and 1 mM dithiothreitol), 10 μL of substrate peptide (RRRDDDSDDD, dissolved in ADB at a concentration of 1 mM), 10 μL of recombinant human CK2 (RRββ-holoenzyme, 25 ng dissolved in ADB; Millipore). Reactions were initiated by the addition of 10 μL of ATP solution (90% 75 mMMgCl2, 75 μM ATP (final ATP concentration: 15 μM) dissolved in ADB; 10% [γ-33P] ATP (stock 1 mCi/100 μL; 3000 Ci/mmol (Perkin-Elmer) and maintained for 10 min at 30° C. The reactions were quenched with 100 μL of 0.75% phosphoric acid and then transferred to and filtered through a phosphor cellulose filter plate (Millipore). After washing each well five times with 0.75% phosphoric acid, the plate was dried under vacuum for 5 min and, following the addition of 15 μL of scintillation fluid to each well, the residual radioactivity was measured using a Wallac luminescence counter. The IC50 values were derived from eight concentrations of test inhibitors.
compound,measurement,setting,value
"Clc1cccc(Nc2c3cnccc3nc3c2nc2ccncn23)c1 [Compound 1, N-(3-chlorophenyl)pyrimido[6′,1′:2,3]imidazo[4,5-b][1,6]naphthyridin-12-amine]",IC50,PC3 (prostate),2.2 µM
same,IC50,HCT116 (colon),1.7 µM
same,IC50,A375 (melanoma),3 µM
same,IC50,H1299 (lung),2.5 µM
same,IC50,MIAPaCa-2 (pancreas),1.4 µM
same,IC50,HL60 (leukemia),3.1 µM
same,IC50,MCF7 (breast),5.9 µM
same,IC50,MDA-MB-231 (breast),4.7 µM
same,IC50,[1],0.138 µM
